Data published in patent US7718641B2, “Pyrrolo [3,4-H] isoquinoline compounds and methods for modulating gated ion channels” (Aros Pharma ApS, priority 2005, dated 2010).

Target: T1, rat ASIC1a (Rattus norvegicus, UniProt P55926)
T1 construct: expressed in transfected cells; host or cells: HEK293
T1 sequence (P55926 1-526): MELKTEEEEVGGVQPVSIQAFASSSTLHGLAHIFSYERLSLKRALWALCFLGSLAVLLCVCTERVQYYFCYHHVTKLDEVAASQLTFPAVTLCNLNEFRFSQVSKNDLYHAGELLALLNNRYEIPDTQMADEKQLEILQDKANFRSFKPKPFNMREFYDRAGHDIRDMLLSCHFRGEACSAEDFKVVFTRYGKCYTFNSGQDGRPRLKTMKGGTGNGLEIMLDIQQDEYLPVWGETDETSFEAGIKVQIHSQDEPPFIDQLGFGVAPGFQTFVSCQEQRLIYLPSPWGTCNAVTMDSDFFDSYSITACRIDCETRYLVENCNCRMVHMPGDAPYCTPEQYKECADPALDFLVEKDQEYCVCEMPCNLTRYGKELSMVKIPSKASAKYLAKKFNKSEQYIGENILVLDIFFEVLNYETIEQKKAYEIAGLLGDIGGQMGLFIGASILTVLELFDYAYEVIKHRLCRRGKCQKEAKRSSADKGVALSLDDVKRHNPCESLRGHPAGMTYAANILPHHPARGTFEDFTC
Test: Whole-cell patch clamp of acid-induced peak inward currents in HEK293 transfected with rat ASIC1a
Assay type: cell-based
Conditions: for inhibitory effect on acid-induced peak inward currents, rASIC1a: HEK293, voltage clamp, increasing concentrations; for potency as antagonist compared to amiloride, rASIC1a: full dose-inhibition curves, HEK293
Protocol: Another example of an in vitro assessment method consists of using mammalian heterologous expression systems, which are known to the skilled in the art, and include a variety of mammalian cell lines such as COS, HEK, e.g., HEK293 and/or CHO, cells. Cell lines are transfected with gated ion channel(s) and used to perform electrophysiology as follows:
All experiments are performed at room temperature (20-25° C.) in voltage clamp using conventional whole cell patch clamp methods (Neher, E., et al. (1978) Pfluegers Arch 375:219-228).
The amplifier used is the EPC-9 (HEKA-electronics, Lambrect, Germany) run by a Macintosh G3 computer via an ITC-16 interface. Experimental conditions are set with the Pulse-software accompanying the amplifier. Data is low pass filtered and sampled directly to hard-disk at a rate of 3 times the cut-off frequency.
Pipettes are pulled from borosilicate glass using a horizontal electrode puller (Zeitz-Instrumente, Augsburg, Germany). The pipette resistances are 2-3 MOhms in the salt solutions used in these experiments. The pipette electrode is a chloridized silver wire, and the reference is a silver chloride pellet electrode (In Vivo Metric, Healdsburg, USA) fixed to the experimental chamber. The electrodes are zeroed with the open pipette in the bath just prior to sealing.
Coverslips with the cells are transferred to a 15 μl experimental chamber mounted on the stage of an inverted microscope (IMT-2, Olympus) supplied with Nomarski optics. Cells are continuously superfused with extracellular saline at a rate of 2.5 ml/min. After giga-seal formation, the whole cell configuration is attained by suction. The cells are held at a holding voltage of −60 mV and at the start of each experiment the current is continuously measured for 45 s to ensure a stable baseline. Solutions of low pH (<7) are delivered to the chamber through a custom-made gravity-driven flowpipe, the tip of which is placed approximately 50 μm from the cell. Application is triggered when the tubing connected to the flowpipe is compressed by a valve controlled by the Pulse-software. Initially, low pH (in general, pH 6.5) is applied for 5 s every 60 s. The sample interval during application is 5501s. […] Current amplitudes are measured at the peak of the responses, and effect of the compounds is calculated as the amplitude at compound equilibrium divided by the amplitude of the current evoked by the pulse just before the compound was included. […]
HEK293 cells were transfected with rASIC1a or rASIC3 and were used to perform full dose-inhibition curves with Compound A, Compound H and amiloride. Results are expressed as a fraction of the control peak current obtained in the absence of the test substance.

inhibitory effect on acid-induced peak inward currents, rASIC1a | Structure (SMILES) | potency as antagonist compared to amiloride, rASIC1a
dose-dependently inhibit | CCN1CCc2c(-c3ccccc3)cc3c(c2C1)NC(=O)/C3=N/O [Compound H, 5-phenyl-6,7,8,9-tetrahydro-3-(hydroxyimino)-8-ethyl-1H-pyrrolo[3,2-h]isoquinoline-2(3H)-one] | more potent antagonists as compared to amiloride
dose-dependently inhibit | COc1ccc(F)cc1-c1cc2c(c3c1CCN(C)C3)NC(=O)/C2=N/O [Compound A, 5-(5-fluoro-2-methoxyphenyl)-6,7,8,9-tetrahydro-3-(hydroxyimino)-8-methyl-1H-pyrrolo[3,2-h]isoquinoline-2(3H)-one] | more potent antagonists as compared to amiloride
